Measurements as given in patent publication US20250145606A1 (Arcus Biosciences, Inc., priority 2023, published 2025).
Like-named read-outs stand apart in the source and are kept apart here.

Key:
c-Kit = c-Kit (Homo sapiens (Human), UniProt P10721); test: Inhibition of c-Kit kinase activity (HTRF KinEASE-TK); assay type: biochemical
Procedure, shortened: (§1)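 Human kinases were preincubated 1 h at rt with a 22-point 1:2 compound titration, then run 120 min at rt with biotinylated TK peptide and ATP (2× mix: c-Kit 16 μM, PDGFRα 1 μM, PDGFRβ 40 μM, CSF1R 20 μM). Phosphopeptide was read by HTRF TR-FRET (665/620 nm), and IC50s came from 4-parameter fits.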

PDGFRα = PDGFRα (Homo sapiens (Human), UniProt P16234); test: Inhibition of PDGFRα kinase activity (HTRF KinEASE-TK); conditions: biochemical
Procedure, shortened: as §1

PDGFRβ = PDGFRβ (Homo sapiens (Human), UniProt P09619); test: Inhibition of PDGFRβ kinase activity (HTRF KinEASE-TK); conditions: biochemical
Procedure, shortened: as §1

CSF1R = CSF1R (Homo sapiens (Human), UniProt P07333); test: Inhibition of CSF1R kinase activity (HTRF KinEASE-TK); conditions: biochemical
Procedure, shortened: as §1

FLT3 = FLT3 (Homo sapiens (Human), UniProt P36888); test: Inhibition of FLT3 kinase activity (HTRF KinEASE-TK); assay type: biochemical
Procedure, shortened: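 FLT3 tyrosine kinase activity was measured with the HTRF KinEASE-TK kit by following phosphorylation of a biotinylated TK peptide. After the 45 min reaction, 10 μL of detection mix was added: 0.2 μM (2×) Streptavidin-XL665 and 2 μM (2×) TK-Antibody-Cryptate in detection buffer. After 60 min, TR-FRET was read on an Envision as the 665 nm/620 nm emission ratio with 320 nm excitation.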

[1] = tested on: Phospho-KIT (Y703) in M07e cells; test: Phospho-KIT (Y703) cellular assay in M07e cells; assay type: cell-based; conditions: M-07e
Procedure, shortened: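 Serum-starved M07e cells preincubated 50 min at 37° C with 11-point half-log compound titration, then stimulated 10 min with SCF at 90.9 ng/mL final. Fixed, permeabilized cells stained for phospho-KIT Y703 and read by flow cytometry (live-gated geometric mean); IC50 by 4-parameter fit normalized to DMSO and positive control.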

[2] = Phospho-KIT (Y703), M07e cells, read-out: M07e Cell IC50

CSF1R, sequence (P07333 20-972): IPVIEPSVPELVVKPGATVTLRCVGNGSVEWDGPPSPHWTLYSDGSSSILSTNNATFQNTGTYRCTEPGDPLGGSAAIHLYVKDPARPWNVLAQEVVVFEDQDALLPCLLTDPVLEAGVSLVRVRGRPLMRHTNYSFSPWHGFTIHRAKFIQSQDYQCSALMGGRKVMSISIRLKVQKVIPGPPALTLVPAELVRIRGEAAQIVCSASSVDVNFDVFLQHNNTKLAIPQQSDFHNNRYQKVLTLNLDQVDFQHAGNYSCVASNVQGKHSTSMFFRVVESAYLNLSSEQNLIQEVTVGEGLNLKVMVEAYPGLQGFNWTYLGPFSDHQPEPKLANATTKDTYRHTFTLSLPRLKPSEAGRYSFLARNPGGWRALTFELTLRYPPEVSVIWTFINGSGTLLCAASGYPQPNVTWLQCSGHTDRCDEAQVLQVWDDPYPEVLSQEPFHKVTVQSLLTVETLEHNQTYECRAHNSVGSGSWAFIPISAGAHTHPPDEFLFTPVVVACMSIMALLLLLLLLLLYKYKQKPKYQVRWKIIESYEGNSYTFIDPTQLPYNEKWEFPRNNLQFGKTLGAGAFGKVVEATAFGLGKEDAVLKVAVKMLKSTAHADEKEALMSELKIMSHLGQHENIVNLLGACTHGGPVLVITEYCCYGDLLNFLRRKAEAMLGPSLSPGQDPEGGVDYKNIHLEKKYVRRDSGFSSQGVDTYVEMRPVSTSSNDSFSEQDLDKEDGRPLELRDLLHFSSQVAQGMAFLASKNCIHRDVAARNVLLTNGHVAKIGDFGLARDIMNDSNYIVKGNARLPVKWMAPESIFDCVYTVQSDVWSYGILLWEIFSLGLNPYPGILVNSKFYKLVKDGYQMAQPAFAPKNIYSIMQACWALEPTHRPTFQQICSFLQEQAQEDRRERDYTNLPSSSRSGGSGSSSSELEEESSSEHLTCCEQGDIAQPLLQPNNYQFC
c-Kit, sequence (P10721 26-976): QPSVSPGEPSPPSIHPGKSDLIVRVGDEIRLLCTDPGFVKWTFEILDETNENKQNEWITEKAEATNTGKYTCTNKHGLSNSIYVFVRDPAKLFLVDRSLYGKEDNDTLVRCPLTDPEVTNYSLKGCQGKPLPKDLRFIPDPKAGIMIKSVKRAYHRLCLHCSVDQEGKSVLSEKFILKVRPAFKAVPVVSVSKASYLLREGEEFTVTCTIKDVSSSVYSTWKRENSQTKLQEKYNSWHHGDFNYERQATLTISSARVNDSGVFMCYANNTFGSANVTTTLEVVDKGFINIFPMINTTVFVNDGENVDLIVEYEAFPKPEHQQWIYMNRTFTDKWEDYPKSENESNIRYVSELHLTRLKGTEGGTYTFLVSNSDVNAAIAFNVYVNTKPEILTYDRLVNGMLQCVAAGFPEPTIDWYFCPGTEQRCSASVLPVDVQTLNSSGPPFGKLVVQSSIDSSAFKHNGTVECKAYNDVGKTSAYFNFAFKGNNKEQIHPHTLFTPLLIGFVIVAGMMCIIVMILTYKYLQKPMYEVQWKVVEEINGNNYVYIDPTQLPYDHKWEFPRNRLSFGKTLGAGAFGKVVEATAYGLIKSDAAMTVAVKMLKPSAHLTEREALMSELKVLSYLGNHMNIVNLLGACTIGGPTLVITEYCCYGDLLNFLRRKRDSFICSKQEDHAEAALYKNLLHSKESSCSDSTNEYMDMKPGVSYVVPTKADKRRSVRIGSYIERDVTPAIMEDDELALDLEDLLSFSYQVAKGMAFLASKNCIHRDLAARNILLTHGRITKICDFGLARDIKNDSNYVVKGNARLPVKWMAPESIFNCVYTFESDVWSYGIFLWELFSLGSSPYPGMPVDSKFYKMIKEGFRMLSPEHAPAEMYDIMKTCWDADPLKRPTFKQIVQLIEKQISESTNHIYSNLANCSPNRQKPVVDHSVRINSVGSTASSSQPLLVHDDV
PDGFRβ, sequence (P09619 33-1106): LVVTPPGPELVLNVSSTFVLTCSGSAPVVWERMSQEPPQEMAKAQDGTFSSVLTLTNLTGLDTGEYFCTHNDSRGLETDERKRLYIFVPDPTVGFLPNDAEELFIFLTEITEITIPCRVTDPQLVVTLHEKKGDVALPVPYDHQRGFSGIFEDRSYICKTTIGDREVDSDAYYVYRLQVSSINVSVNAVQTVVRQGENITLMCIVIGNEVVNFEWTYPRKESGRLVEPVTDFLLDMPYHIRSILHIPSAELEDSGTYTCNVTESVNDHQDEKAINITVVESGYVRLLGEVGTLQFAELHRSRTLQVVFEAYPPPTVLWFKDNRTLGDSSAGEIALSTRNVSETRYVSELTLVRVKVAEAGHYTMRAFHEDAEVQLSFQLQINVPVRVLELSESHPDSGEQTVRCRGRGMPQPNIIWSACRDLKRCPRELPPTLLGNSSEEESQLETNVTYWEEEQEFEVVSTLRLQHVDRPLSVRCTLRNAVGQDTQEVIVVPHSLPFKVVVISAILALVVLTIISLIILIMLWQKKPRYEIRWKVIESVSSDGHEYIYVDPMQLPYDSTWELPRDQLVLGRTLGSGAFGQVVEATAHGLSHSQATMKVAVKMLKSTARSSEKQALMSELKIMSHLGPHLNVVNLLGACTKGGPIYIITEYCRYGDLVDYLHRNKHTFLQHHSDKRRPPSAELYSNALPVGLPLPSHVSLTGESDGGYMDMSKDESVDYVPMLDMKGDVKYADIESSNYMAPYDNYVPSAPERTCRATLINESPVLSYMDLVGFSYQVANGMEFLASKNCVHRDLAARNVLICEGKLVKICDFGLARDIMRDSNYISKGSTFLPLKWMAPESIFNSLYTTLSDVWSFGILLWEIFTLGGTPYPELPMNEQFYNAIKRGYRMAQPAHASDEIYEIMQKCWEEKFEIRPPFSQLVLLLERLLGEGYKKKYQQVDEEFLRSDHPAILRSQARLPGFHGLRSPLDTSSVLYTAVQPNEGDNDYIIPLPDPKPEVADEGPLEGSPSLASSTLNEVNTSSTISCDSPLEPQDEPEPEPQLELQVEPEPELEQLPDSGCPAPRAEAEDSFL
PDGFRα, sequence (P16234 24-1089): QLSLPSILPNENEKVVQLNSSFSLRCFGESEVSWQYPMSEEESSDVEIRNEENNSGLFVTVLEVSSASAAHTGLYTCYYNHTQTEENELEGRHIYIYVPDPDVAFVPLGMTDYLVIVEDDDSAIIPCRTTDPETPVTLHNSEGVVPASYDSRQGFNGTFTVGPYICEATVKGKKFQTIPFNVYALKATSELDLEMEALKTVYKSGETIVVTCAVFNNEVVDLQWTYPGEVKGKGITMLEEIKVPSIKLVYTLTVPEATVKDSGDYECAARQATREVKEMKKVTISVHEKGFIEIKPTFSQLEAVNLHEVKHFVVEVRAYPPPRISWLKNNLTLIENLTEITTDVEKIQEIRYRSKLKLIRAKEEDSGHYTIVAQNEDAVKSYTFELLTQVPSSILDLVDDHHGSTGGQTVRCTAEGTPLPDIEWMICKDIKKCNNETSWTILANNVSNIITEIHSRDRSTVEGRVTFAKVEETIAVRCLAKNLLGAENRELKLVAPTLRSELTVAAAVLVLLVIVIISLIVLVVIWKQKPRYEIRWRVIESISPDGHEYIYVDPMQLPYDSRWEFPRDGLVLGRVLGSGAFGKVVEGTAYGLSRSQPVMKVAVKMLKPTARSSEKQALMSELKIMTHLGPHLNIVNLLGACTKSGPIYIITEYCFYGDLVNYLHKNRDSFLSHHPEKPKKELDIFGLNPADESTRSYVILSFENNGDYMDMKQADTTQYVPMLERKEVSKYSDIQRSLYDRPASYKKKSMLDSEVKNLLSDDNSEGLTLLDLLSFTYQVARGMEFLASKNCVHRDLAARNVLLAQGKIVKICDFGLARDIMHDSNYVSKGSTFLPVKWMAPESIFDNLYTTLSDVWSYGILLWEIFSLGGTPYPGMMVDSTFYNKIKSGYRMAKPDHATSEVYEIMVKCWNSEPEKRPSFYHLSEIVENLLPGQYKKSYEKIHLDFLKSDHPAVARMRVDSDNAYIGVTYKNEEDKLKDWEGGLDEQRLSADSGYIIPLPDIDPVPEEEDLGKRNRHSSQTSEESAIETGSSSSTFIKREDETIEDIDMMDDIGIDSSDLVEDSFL
FLT3, sequence (P36888 27-993): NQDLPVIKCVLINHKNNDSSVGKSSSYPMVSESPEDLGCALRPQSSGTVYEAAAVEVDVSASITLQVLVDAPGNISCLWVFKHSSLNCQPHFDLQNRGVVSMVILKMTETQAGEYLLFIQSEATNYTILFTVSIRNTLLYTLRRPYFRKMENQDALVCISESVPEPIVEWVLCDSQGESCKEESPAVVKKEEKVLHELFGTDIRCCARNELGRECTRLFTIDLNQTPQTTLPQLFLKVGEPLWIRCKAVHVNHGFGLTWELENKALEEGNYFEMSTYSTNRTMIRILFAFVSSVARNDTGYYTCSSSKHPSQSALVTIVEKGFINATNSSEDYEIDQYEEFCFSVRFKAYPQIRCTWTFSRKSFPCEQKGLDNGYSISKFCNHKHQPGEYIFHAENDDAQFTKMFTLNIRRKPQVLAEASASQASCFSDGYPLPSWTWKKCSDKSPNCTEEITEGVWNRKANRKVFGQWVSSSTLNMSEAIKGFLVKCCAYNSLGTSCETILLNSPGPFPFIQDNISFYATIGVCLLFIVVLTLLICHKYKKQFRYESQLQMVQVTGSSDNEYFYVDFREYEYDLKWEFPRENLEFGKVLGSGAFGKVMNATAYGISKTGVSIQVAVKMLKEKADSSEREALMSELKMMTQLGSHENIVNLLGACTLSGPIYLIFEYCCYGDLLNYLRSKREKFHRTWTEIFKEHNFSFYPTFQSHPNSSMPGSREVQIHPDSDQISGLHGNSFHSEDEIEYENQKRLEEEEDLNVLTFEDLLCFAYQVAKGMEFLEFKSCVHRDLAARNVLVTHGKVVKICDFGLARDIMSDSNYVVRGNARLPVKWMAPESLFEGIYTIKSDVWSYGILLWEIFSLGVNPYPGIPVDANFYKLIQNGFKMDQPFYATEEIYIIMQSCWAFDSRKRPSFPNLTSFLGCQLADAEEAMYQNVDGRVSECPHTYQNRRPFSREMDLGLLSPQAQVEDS

Row | SMILES | IC50 (c-Kit; biochemical, HTRF KinEASE-TK) | IC50 (PDGFRα; HTRF KinEASE-TK) | IC50 (PDGFRβ; HTRF KinEASE-TK) | IC50 (CSF1R; HTRF KinEASE-TK) | IC50 (FLT3; biochemical, HTRF KinEASE-TK) | IC50 [1, 2] | IC50 ([1]; M07e cells, read-out: Phospho-KIT (Y703) cellular IC50) | IC50 (c-Kit) | IC50 (FLT3) | IC50 ([1]; read-out: M07e Cell IC50) | IC50 (c-Kit; biochemical) | IC50 (PDGFRα) | IC50 (PDGFRβ) | IC50 (CSF1R) | IC50 (FLT3; biochemical) | IC50 ([1]; phospho-KIT (Y703), SCF-stimulated M07e cells, read-out: M07e Cell IC50)
1 | Cc1cc(F)c(C(=O)Nc2ccc3c(n2)CCOC3)cc1NC(=O)c1cnc(N)s1 [Example 115, 2-Amino-N-[5-(7,8-dihydro-5H-pyrano[4,3-b]pyridin-2-ylcarbamoyl)-4-fluoro-2-methylphenyl]-1,3-thiazole-5-carboxamide] | < 100 nM | > 1000 nM | > 1000 nM | 100 to 1000 nM | > 1000 nM | < 100 nM | – | – | – | – | – | – | – | – | – | –
2 | Cc1cc(F)c(C(=O)Nc2ccc(OC(C)C)nn2)cc1NC(=O)c1cnc(N)s1 [Example 259, 2-Amino-N-[4-fluoro-2-methyl-5-[(6-propan-2-yloxypyridazin-3-yl)carbamoyl]phenyl]-1,3-thiazole-5-carboxamide] | < 100 nM | 100 to 1000 nM | < 100 nM | 100 to 1000 nM | > 1000 nM | – | < 100 nM | – | – | – | – | – | – | – | – | –
3 | CNc1ncc(C(=O)Nc2cc(C(=O)Nc3ccc(OC4CC4)cn3)c(F)cc2C)s1 [Example 241, N-[5-[(5-cyclopropyloxypyridin-2-yl)carbamoyl]-4-fluoro-2-methylphenyl]-2-(methylamino)-1,3-thiazole-5-carboxamide] | < 100 nM | > 1000 nM | > 1000 nM | > 1000 nM | > 1000 nM | < 100 nM | – | – | – | – | – | – | – | – | – | –
4 | Cc1cc(F)c(C(=O)Nc2ccc(C3CC3)cn2)cc1NC(=O)c1cnc(N)s1 [Example 130, 2-Amino-N-[5-[(5-cyclopropylpyridin-2-yl)carbamoyl]-4-fluoro-2-methylphenyl]-1,3-thiazole-5-carboxamide] | < 100 nM | 100 to 1000 nM | 100 to 1000 nM | 100 to 1000 nM | > 1000 nM | < 100 nM | – | – | – | – | – | – | – | – | – | –
5 | Nc1ncc(C(=O)Nc2cc(C(=O)Nc3ccc(OC4CC4)cn3)c(F)cc2Cl)s1 [Example 209, 2-Amino-N-[2-chloro-5-[(5-cyclopropyloxypyridin-2-yl)carbamoyl]-4-fluorophenyl]-1,3-thiazole-5-carboxamide] | < 100 nM | > 1000 nM | 100 to 1000 nM | 100 to 1000 nM | > 1000 nM | < 100 nM | – | – | – | – | – | – | – | – | – | –
6 | Cc1cc(F)c(C(=O)Nc2ccc(OC3CC3)cc2)cc1NC(=O)c1cnc(N)s1 [Example 229, 2-Amino-N-[5-[(4-cyclopropyloxyphenyl)carbamoyl]-4-fluoro-2-methylphenyl]-1,3-thiazole-5-carboxamide] | < 100 nM | < 100 nM | < 100 nM | 100 to 1000 nM | > 1000 nM | < 100 nM | – | – | – | – | – | – | – | – | – | –
7 | Cc1cc(F)c(C(=O)Nc2ccc(OC(C)C)cn2)cc1NC(=O)c1cnc(N)s1 [Example 140, 2-Amino-N-[4-fluoro-2-methyl-5-[(5-propan-2-yloxypyridin-2-yl)carbamoyl]phenyl]-1,3-thiazole-5-carboxamide] | – | 100 to 1000 nM | 100 to 1000 nM | 100 to 1000 nM | – | – | – | < 100 nM | > 1000 nM | < 100 nM | – | – | – | – | – | –
8 | Cc1cc(F)c(C(=O)N[C@H]2C[C@@H](F)C2)cc1NC(=O)c1cnc(N)s1 [Example 124, 2-Amino-N-[4-fluoro-5-[(3-fluorocyclobutyl)carbamoyl]-2-methylphenyl]-1,3-thiazole-5-carboxamide] | < 100 nM | > 1000 nM | > 1000 nM | > 1000 nM | > 1000 nM | < 100 nM | – | – | – | – | – | – | – | – | – | –
9 | Cc1ncc(C(=O)Nc2cc(C(=O)Nc3ccc(OC(C)C)cn3)c(F)cc2C)s1 [Example 40, N-[4-fluoro-2-methyl-5-[(5-propan-2-yloxypyridin-2-yl)carbamoyl]phenyl]-2-methyl-1,3-thiazole-5-carboxamide] | < 100 nM | > 1000 nM | > 1000 nM | > 1000 nM | > 1000 nM | < 100 nM | – | – | – | – | – | – | – | – | – | –
10 | Cc1cc(F)c(C(=O)Nc2ccn([C@@H]3CCOC3)n2)cc1NC(=O)c1cnc(N)s1 [Example 149, 2-Amino-N-[4-fluoro-2-methyl-5-[[1-[(3R)-oxolan-3-yl]pyrazol-3-yl]carbamoyl]phenyl]-1,3-thiazole-5-carboxamide] | < 100 nM | > 1000 nM | 100 to 1000 nM | > 1000 nM | > 1000 nM | < 100 nM | – | – | – | – | – | – | – | – | – | –
11 | Cc1cc(F)c(C(=O)Nc2ccc(OC3CC3)cn2)cc1NC(=O)c1cnc(N)s1 [Example 129, 2-Amino-N-[5-[(5-cyclopropyloxypyridin-2-yl)carbamoyl]-4-fluoro-2-methylphenyl]-1,3-thiazole-5-carboxamide] | < 100 nM | > 1000 nM | 100 to 1000 nM | 100 to 1000 nM | > 1000 nM | < 100 nM | – | – | – | – | – | – | – | – | – | –
12 | Cc1cc(F)c(C(=O)NCC2(F)CC2)cc1NC(=O)c1cnc(NC(=O)N2CCC2)s1 [Example 103, 2-(Azetidine-1-carbonylamino)-N-[4-fluoro-5-[(1-fluorocyclopropyl)methylcarbamoyl]-2-methylphenyl]-1,3-thiazole-5-carboxamide] | < 100 nM | 100 to 1000 nM | 100 to 1000 nM | > 1000 nM | > 1000 nM | < 100 nM | – | – | – | – | – | – | – | – | – | –
13 | Cc1ncc(C(=O)Nc2cc(C(=O)Nc3ccc(COC(F)F)cn3)c(F)cc2C)s1 [Example 78, N-[5-[[5-(difluoromethoxymethyl)pyridin-2-yl]carbamoyl]-4-fluoro-2-methylphenyl]-2-methyl-1,3-thiazole-5-carboxamide] | < 100 nM | > 1000 nM | > 1000 nM | > 1000 nM | > 1000 nM | – | – | – | – | < 100 nM | – | – | – | – | – | –
14 | Cc1cc(F)c(C(=O)Nc2ccn([C@H]3CCOC3)n2)cc1NC(=O)c1cnc(N)s1 [Example 191, 2-Amino-N-[4-fluoro-2-methyl-5-[[1-[(3S)-oxolan-3-yl]pyrazol-3-yl]carbamoyl]phenyl]-1,3-thiazole-5-carboxamide] | < 100 nM | > 1000 nM | > 1000 nM | > 1000 nM | > 1000 nM | < 100 nM | – | – | – | – | – | – | – | – | – | –
15 | Cc1cc(F)c(C(=O)Nc2ccc(OC3CCC3)cn2)cc1NC(=O)c1cnc(N)s1 [Example 134, 2-Amino-N-[5-[(5-cyclobutyloxypyridin-2-yl)carbamoyl]-4-fluoro-2-methylphenyl]-1,3-thiazole-5-carboxamide] | < 100 nM | 100 to 1000 nM | < 100 nM | 100 to 1000 nM | > 1000 nM | < 100 nM | – | – | – | – | – | – | – | – | – | –
16 | Cc1cc(F)c(C(=O)Nc2ccc(CC3CC3)cn2)cc1NC(=O)c1cnc(N)s1 [Example 7, 2-Amino-N-[5-[[5-(cyclopropylmethyl)pyridin-2-yl]carbamoyl]-4-fluoro-2-methylphenyl]-1,3-thiazole-5-carboxamide] | – | – | – | – | – | – | – | – | – | – | < 100 nM | 100 to 1000 nM | < 100 nM | 100 to 1000 nM | > 1000 nM | < 100 nM
17 | CCc1ccc(NC(=O)c2cc(NC(=O)c3cnc(C)s3)c(C)cc2F)nc1 [Example 82, N-[5-[(5-ethylpyridin-2-yl)carbamoyl]-4-fluoro-2-methylphenyl]-2-methyl-1,3-thiazole-5-carboxamide] | < 100 nM | > 1000 nM | > 1000 nM | > 1000 nM | > 1000 nM | < 100 nM | – | – | – | – | – | – | – | – | – | –
